Test results as given in patent US8242151B2, “Tricyclic compounds” (Kyowa Hakko Kirin Co., Ltd., priority 2007, dated 2012).

Tests used:
[1] = target: T1, GAL4-PPARγ chimeric nuclear receptor (human PPARγ ligand binding region) (Homo sapiens, UniProt P37231); test: Transactivation assay of PPARγ by transient gene transfer (GAL4-PPARγ luciferase reporter); assay type: cell-based; conditions: HEK293EBNA cells, 24 hr; concentration showing 50% of efficacy; activity relative to pioglitazone 10 μmol/L = 100%
T1 construct: expressed in transfected cells; host or cells: HEK293EBNA cells
T1 sequence (P37231 174-475 isoform P37231-2): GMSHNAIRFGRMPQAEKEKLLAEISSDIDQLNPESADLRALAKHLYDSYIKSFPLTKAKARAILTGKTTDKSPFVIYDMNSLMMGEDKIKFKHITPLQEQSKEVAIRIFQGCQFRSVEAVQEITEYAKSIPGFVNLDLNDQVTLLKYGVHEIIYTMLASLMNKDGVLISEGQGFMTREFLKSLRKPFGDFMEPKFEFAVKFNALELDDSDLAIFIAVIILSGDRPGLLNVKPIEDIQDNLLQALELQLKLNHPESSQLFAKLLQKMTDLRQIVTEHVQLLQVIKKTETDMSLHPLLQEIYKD
Experimental: The agonist activity of compound (I) to PPARγ was determined by a transactivation assay method using a chimeric nuclear receptor of a DNA binding region of a yeast transcription factor GAL4 and a PPARγ ligand binding region. Specifically, the PPARγ agonist activity of compound (I) was evaluated by the following method based on the method of Lehmann et al. (J Biol. Chem., 1995, vol. 270, page 12953).
HEK293EBNA cells cultured in Dulbecco's Modified Eagle medium (Invitrogen) containing 10 v/v % fetal calf serum (Invitrogen) were used. 30 mL of the above-mentioned cells (density: 1×10^5 cells/mL) were inoculated in a […] culture dish (Iwaki Glass), and cultured overnight. Using SuperFect Transfection Reagent (QIAGEN), a plasmid expressing a GAL4-PPARγ chimeric nuclear receptor fusing 174-475 amino acids, which are human PPARγ ligand binding region, and 1-147 amino acids, which are GAL4 DNA binding region, and a reporter plasmid expressing a GAL4 responsive luciferase were transiently introduced into the cells at a proportion of 4:1. After 5 hr from gene introduction, the cells were detached from the culture dish, and the detached cells (density: 2×10^4 cells/mL) were inoculated by 100 μL in each well of a 96 well white plate (SUMITOMO BAKELITE), and cultured overnight. The medium was removed, compound (I) diluted in various concentrations with serum-free Dulbecco's Modified Eagle medium was added by 100 μL, and the mixture was reacted under a 5% carbon dioxide gas stream (5% CO2) at 37° C. for 24 hr. On the other hand, as a positive control, 10 μmol/L of pioglitazone (100 μL) was added, and the mixture was reacted under a 5% carbon dioxide gas stream (5% CO2) at 37° C. for 24 hr. As a substrate of luciferase, 100 μL of Steady-Glo (Promega) was added to each well and the mixture was thoroughly stirred. Immediately thereafter, the chemical luminescence due to luciferase was measured using TopCount NTX (Packard).
The agonist activity (activity rate (%)) of compound (I) to PPARγ was calculated according to the following formula, as a relative activity when the agonist activity on addition of pioglitazone (10 μmol/L) was 100%.

[2] = tested on: spontaneously hypertensive rats (SHR); test: Antihypertensive action by telemetry method; assay type: in vivo, rat; conditions: oral once a day for 4 days, 24 hr averages
Source text: A telemetry transmitter was indwelled in the abdominal artery of spontaneously hypertensive rats (SHR), and the blood pressure and heart rate were monitored. The rats were acclimated and reared for 4 weeks or more, and only the rats with hypertension were used for the test. Before drug administration, the rats were grouped such that the blood pressure and heart rate of each rat would be of the same levels between the groups. A solvent (0.5% methylcellulose solution) and a test compound were repeatedly administered orally once a day for 4 days. The average systolic blood pressure for 24 hr, average diastolic blood pressure for 24 hr and average heart rate for 24 hr were calculated on each administration day.

EC50 [1]	SMILES	antihypertensive action (blood pressure, telemetry) [2]
342 nM	CCCc1nc2c(C)cccc2n1Cc1ccc2c(c1)CCc1ccccc1/C2=C(/C)c1noc(=O)[nH]1 [Compound 83, (E)-2-(4-methyl-2-propylbenzimidazol-1-yl)methyl-5-[1-(5-oxo-4,5-dihydro-1,2,4-oxadiazol-3-yl)ethylidene]-10,11-dihydro-5H-dibenzo[a,d]cycloheptene]	–
325 nM	CCCc1nc(CC)c(C(=O)OCC)n1Cc1ccc2c(c1)CCc1ccccc1N2C(C)c1nnn[nH]1 (stereo not shown) [Compound 28, 2-(5-ethoxycarbonyl-4-ethyl-2-propyl-1H-imidazol-1-yl)methyl-5-[1-(1H-tetrazol-5-yl)ethyl]-10,11-dihydro-5H-dibenzo[b,f]azepine]	–
4130 nM	Cc1cc(C)c2nc(C3CC3)n(Cc3ccc4c(c3)CCc3ccccc3N4Cc3nnn[nH]3)c2n1 [Compound S14, 2-(2-cyclopropyl-5,7-dimethyl-3H-imidazo[4,5-b]pyridin-3-yl)methyl-5-(1H-tetrazol-5-yl)methyl-10,11-dihydro-5H-dibenzo[b,f]azepine]	–
251 nM	CCc1nc2c(C)cc(C)nc2n1Cc1ccc2c(c1)CCc1ccccc1/C2=C(\C)c1nn[nH]n1 [Compound 62, (Z)-2-(2-ethyl-5,7-dimethyl-3H-imidazo[4,5-b]pyridin-3-yl)methyl-5-[1-(1H-tetrazol-5-yl)ethylidene]-10,11-dihydro-5H-dibenzo[a,d]cycloheptene]	–
94 nM	CCCc1nc2c(C)cccc2n1Cc1ccc2c(c1)CCc1ccccc1/C2=C/c1noc(=O)[nH]1 [Compound 51, (Z)-2-(4-methyl-2-propylbenzimidazol-1-yl)methyl-5-(5-oxo-4,5-dihydro-1,2,4-oxadiazol-3-yl)methylene-10,11-dihydro-5H-dibenzo[a,d]cycloheptene]	–
415 nM	CCc1nc2c(C(F)(F)F)cc(C)nc2n1Cc1ccc2c(c1)CCc1ccccc1/C2=C\c1noc(=O)[nH]1 [Compound 37, (E)-2-(2-ethyl-5-methyl-7-trifluoromethyl-3H-imidazo[4,5-b]pyridin-3-yl)methyl-5-(5-oxo-4,5-dihydro-1,2,4-oxadiazol-3-yl)methylene-10,11-dihydro-5H-dibenzo[a,d]cycloheptene]	–
320 nM	CCOc1nc2c(C)cc(C)nc2n1Cc1ccc2c(c1)COc1ccccc1/C2=C\c1noc(=O)[nH]1 [Compound 124, (Z)-8-(2-ethoxy-5,7-dimethyl-3H-imidazo[4,5-b]pyridin-3-yl)methyl-11-(5-oxo-4,5-dihydro-1,2,4-oxadiazol-3-yl)methylene-6,11-dihydrodibenzo[b,e]oxepine]	antihypertensive action
1130 nM	C/C(=C1/c2ccccc2COc2cc(Cn3c(C4CC4)nc4c(C)cc(C)nc43)ccc21)c1noc(=O)[nH]1 [Compound 112, (E)-3-(2-cyclopropyl-5,7-dimethyl-3H-imidazo[4,5-b]pyridin-3-yl)methyl-11-[1-(5-oxo-4,5-dihydro-1,2,4-oxadiazol-3-yl)ethylidene]-6,11-dihydrodibenzo[b,e]oxepine]	–
348 nM	CCc1nc2c(C)cc(C)nc2n1Cc1ccc2c(c1)COc1ccccc1/C2=C\c1noc(=O)[nH]1 [Compound 118, (Z)-8-(2-ethyl-5,7-dimethyl-3H-imidazo[4,5-b]pyridin-3-yl)methyl-11-(5-oxo-4,5-dihydro-1,2,4-oxadiazol-3-yl)methylene-6,11-dihydrodibenzo[b,e]oxepine]	antihypertensive action
440 nM	CCCc1nc2c(C(F)(F)F)cc(C)nc2n1Cc1ccc2c(c1)CCc1ccccc1/C2=C/c1noc(=O)[nH]1 [Compound 57, (Z)-2-(5-methyl-2-propyl-7-trifluoromethyl-3H-imidazo[4,5-b]pyridin-3-yl)methyl-5-(5-oxo-4,5-dihydro-1,2,4-oxadiazol-3-yl)methylene-10,11-dihydro-5H-dibenzo[a,d]cycloheptene]	–
1520 nM	CCOc1nc2cccnc2n1Cc1ccc2c(c1)CCc1ccccc1/C2=C(/C)c1noc(=O)[nH]1 [Compound 91, (E)-2-(2-ethoxy-3H-imidazo[4,5-b]pyridin-3-yl)methyl-5-[1-(5-oxo-4,5-dihydro-1,2,4-oxadiazol-3-yl)ethylidene]-10,11-dihydro-5H-dibenzo[a,d]cycloheptene]	–
1020 nM	C/C(=C1/c2ccccc2CCc2cc(Cn3c(C4CC4)nc4c(C)ccnc43)ccc21)c1nnn[nH]1 [Compound 100, (E)-2-(2-cyclopropyl-7-methyl-3H-imidazo[4,5-b]pyridin-3-yl)methyl-5-[1-(1H-tetrazol-5-yl)ethylidene]-10,11-dihydro-5H-dibenzo[a,d]cycloheptene]	antihypertensive action
103 nM	CCCc1nc2c(C)cccc2n1Cc1ccc2c(c1)CCc1ccccc1/C2=C\c1noc(=O)[nH]1 [Compound 33, (E)-2-(4-methyl-2-propylbenzimidazol-1-yl)methyl-5-(5-oxo-4,5-dihydro-1,2,4-oxadiazol-3-yl)methylene-10,11-dihydro-5H-dibenzo[a,d]cycloheptene]	–
48 nM	CCCc1nc2c(C)cccc2n1Cc1ccc2c(c1)CCc1ccccc1N2C(C)c1noc(=O)[nH]1 (stereo not shown) [Compound 18, 2-(4-methyl-2-propylbenzimidazol-1-yl)methyl-5-[1-(5-oxo-4,5-dihydro-1,2,4-oxadiazol-3-yl)ethyl]-10,11-dihydro-5H-dibenzo[b,f]azepine]	–
73 nM	CCCc1nc2c(C)cccc2n1Cc1ccc2c(c1)CCc1ccccc1C2Cc1noc(=O)[nH]1 (stereo not shown) [Compound 64, 2-(4-methyl-2-propylbenzimidazol-1-yl)methyl-5-(5-oxo-4,5-dihydro-1,2,4-oxadiazol-3-yl)methyl-10,11-dihydro-5H-dibenzo[a,d]cycloheptene]	–
97 nM	CCCc1nc2c(C)cccc2n1Cc1ccc2c(c1)CCc1ccccc1N2Cc1noc(=O)[nH]1 [Compound 6, 2-(4-methyl-2-propylbenzimidazol-1-yl)methyl-5-(5-oxo-4,5-dihydro-1,2,4-oxadiazol-3-yl)methyl-10,11-dihydro-5H-dibenzo[b,f]azepine]	–
53 nM	Cc1cc(C)c2nc(C3CC3)n(Cc3ccc4c(c3)CCc3ccccc3N4C(C)c3noc(=O)[nH]3)c2n1 (stereo not shown) [Compound 70, 2-(2-cyclopropyl-5,7-dimethyl-3H-imidazo[4,5-b]pyridin-3-yl)methyl-5-[1-(5-oxo-4,5-dihydro-1,2,4-oxadiazol-3-yl)ethyl]-10,11-dihydro-5H-dibenzo[b,f]azepine]	–
1290 nM	CCc1nc2c(C)cc(C)nc2n1Cc1ccc2c(c1)CCc1ccccc1/C2=C/c1nnn[nH]1 [Compound S17, (Z)-2-(2-ethyl-5,7-dimethyl-3H-imidazo[4,5-b]pyridin-3-yl)methyl-5-(1H-tetrazol-5-yl)methylene-10,11-dihydro-5H-dibenzo[a,d]cycloheptene]	–
310 nM	CCc1nc2c(Cl)cc(C)nc2n1Cc1ccc2c(c1)OCc1ccccc1/C2=C\c1noc(=O)[nH]1 [Compound 106, (E)-3-(7-chloro-2-ethyl-5-methyl-3H-imidazo[4,5-b]pyridin-3-yl)methyl-11-(5-oxo-4,5-dihydro-1,2,4-oxadiazol-3-yl)methylene-6,11-dihydrodibenzo[b,e]oxepine]	–
